Experimental data from patent publication US10450337B2, “Pharmaceutical compounds” (Rafael Pharmaceuticals, Inc., priority 2014, dated 2019).

What was measured:
Assay type in all cases: cell-based
[1] = system: SF539 human gliosarcoma cells; assay: Cell kill screening, CellTiter Glo viability assay, SF539; conditions: 24 hours treatment, 0.5% serum and 0.05% DMSO, relative to untreated control; for viability at 50 µM: SF-539, 50 μM, read-out: % avg live cells @ 50 μM (% Viable Cells Remaining); for viability at 100 µM: SF-539, 100 μM, read-out: % avg live cells @ 100 μM (% Viable Cells Remaining)
Excerpt: (§1) The objective of this investigation was to assess the in vitro cell killing activities of analogs of lipoic acid in BXPC3 human pancreatic, 11460 non small lung carcinoma, and SF539 human gliosarcoma cancer cells.
(§2) Three human tumor cell types, BXPC3 human pancreatic cancer, H460 non small lung carcinoma, and SF539 human gliosarcoma, were used in this investigation. The BXPC3 and H460 cells were originally obtained from American Type Cell Culture (ATCC). The SF539 cells were originally obtained from the NCI AIDS and Cancer Specimen Bank (ACSB). All tumor cells were maintained at 37° C. in a humidified 5% CO2 atmosphere in T75 tissue culture flasks containing 20 mL of Roswell Park Memorial Institute (RPMI) 1640 containing 2 mM L-glutamine, 10% FBS and 1% penicillin and streptomycin (100 IU/mL penicillin and 100 μg/mL streptomycin). The tumor cells were split at a ratio of 1:5 every 4-5 days by trypsinization and resuspended in fresh medium in a new flask. Cells were harvested for experiments at 70-90% confluency.
(§3) Stock solutions of each analog were prepared at a concentration of 200 and 100 mM in DMSO. Five μL of this solution was diluted in 10.0 mL of 0.5% serum containing RPMI media to give the desired 100 μM and 50 μM solutions in 0.05% DMSO.
(§4) The cancer cells were seeded at 4000 cells/well for H460 cells and 6000 cells/well for BXPC3 and SF 539 cells and incubated 24 hours. The killing activity of analogs was assayed at 50 μM and 100 μM concentrations. The tumor cells were treated for 24 hours with the test article, and after 24 hours of treatment the number of viable tumor cells was determined using the CTG assay.
(§5) The number of cells targeted for the study is 4×10^3 per well for H460 cells and 6×10^3 per well for BXPC3 and SF539 cells in 100 μL of medium. The actual number of cells were counted and seeded in the wells of a 96 well-plate. The cells were incubated for approximately 24 hours before addition of test article.
(§6) The media in the plate was removed by aspiration, and 100 μL of the test article at a final concentration of 50 μM or 100 μM was added to the cells. After exposure to the test articles for 24 hours, the number of viable cells in each well was determined and the percent of viable cells relative to control (in the absence of test article) were calculated. Additionally, a set of wells was treated with cell culture medium in the absence of cells to obtain a value for background luminescence. A separate set of cells was seeded at the same time in a clear 96-well plate and observed under the microscope at 24 hours, following addition of the test article to estimate the amount of cells present after treatment.
(§7) The number of viable cells was determined by using the CTG assay. Specifically, reagents were mixed and allowed to come to room temperature according to instructions from Promega, Inc. (Madison, Wis.). Cell plates were removed from the cell culture incubator and left on the bench for thirty minutes until they reached room temperature. 100 μL per well of CTG reagent was added with the 12-channel Eppendorf pipettor. The cells were lysed by shaking the plate for two minutes in a shaker. The cells were kept in room temperature for ten minutes to stabilize the luminescent signal. The luminescence was measured using the FLUOstar OPTIMA plate reader (BMG Labtech, Inc., Durham, N.C.).
(§8) Data from luminescence readings was copied onto EXCEL spreadsheets, and cell growth relative to untreated cells was calculated, using the following equation: […]

[2] = system: BXPC3 human pancreatic cancer cells; assay: Cell kill screening, CellTiter Glo viability assay, BXPC3; conditions: 24 hours treatment, 0.5% serum and 0.05% DMSO, relative to untreated control; for viability at 50 µM: BXPC-3, 50 μM, read-out: % avg live cells @ 50 μM (% Viable Cells Remaining); for viability at 100 µM: BXPC-3, 100 μM, read-out: % avg live cells @ 100 μM (% Viable Cells Remaining)
Excerpt: as §1, §2, §3, §4, §5, §6, §7, §8

[3] = system: H460 non small lung carcinoma cells; assay: Cell kill screening, CellTiter Glo viability assay, H460; conditions: Homo sapiens, 24 hours treatment, 0.5% serum and 0.05% DMSO, relative to untreated control; for viability at 50 µM: NCI-H460, 50 μM, read-out: % avg live cells @ 50 μM (% Viable Cells Remaining); for viability at 100 µM: NCI-H460, 100 μM, read-out: % avg live cells @ 100 μM (% Viable Cells Remaining)
Excerpt: as §1, §2, §3, §4, §5, §6, §7, §8

## O=CCCCCC(CCSCc1ccccc1)SCc1ccccc1 (stereo not shown) [A]
[1]
  viability at 50 µM: 29.4%
  viability at 100 µM: 28.1%
[2]
  viability at 50 µM: 37.6%
  viability at 100 µM: 26.3%
[3]
  viability at 50 µM: 44.9%
  viability at 100 µM: 29.9%

## O=C(O)CCCCCCC(CCSCc1ccccc1)SCc1ccccc1 (stereo not shown) [C]
[1]
  viability at 50 µM: 5%
  viability at 100 µM: 20%
[2]
  viability at 50 µM: 2%
  viability at 100 µM: 6%
[3]
  viability at 50 µM: 3%
  viability at 100 µM: 15%

## O=C(O)/C=C/CCCCC(CCSCc1ccccc1)SCc1ccccc1 (stereo not shown) [D]
[1]
  viability at 50 µM: 9.9%
  viability at 100 µM: 0%
[3]
  viability at 50 µM: 15.4%
  viability at 100 µM: 0%

## O=C(O)CCCCC(CCNC(=O)OCc1ccccc1)NC(=O)OCc1ccccc1 (stereo not shown) [G]
[1]
  viability at 50 µM: 97.3%
  viability at 100 µM: 79.6%
[2]
  viability at 50 µM: 82%
  viability at 100 µM: 72.6%
[3]
  viability at 50 µM: 89.1%
  viability at 100 µM: 87%

## O=C(CCCCC(CCSCc1ccccc1)SCc1ccccc1)OCc1ccccc1 (stereo not shown) [H]
[1]
  viability at 50 µM: 97%
  viability at 100 µM: 95%
[2]
  viability at 50 µM: 92%
  viability at 100 µM: 84%
[3]
  viability at 50 µM: 110%
  viability at 100 µM: 101%

## NC(=O)CCCCC(CCSCc1ccccc1)SCc1ccccc1 (stereo not shown) [I]
[1]
  viability at 50 µM: 1%
  viability at 100 µM: 1%
[2]
  viability at 50 µM: 1%
  viability at 100 µM: 0%
[3]
  viability at 50 µM: 1%
  viability at 100 µM: 0%

## O=C(CCCCC(CCSCc1ccccc1)SCc1ccccc1)N1CCOCC1 (stereo not shown) [J]
[1]
  viability at 50 µM: 38.2%
  viability at 100 µM: 15.9%
[2]
  viability at 50 µM: 8.2%
  viability at 100 µM: 4.6%
[3]
  viability at 50 µM: 37.2%
  viability at 100 µM: 15.8%

## O=C(CCCCC(CCSCc1ccccc1)SCc1ccccc1)NCCN1CCOCC1 (stereo not shown) [K]
[1]
  viability at 50 µM: 0%
  viability at 100 µM: 0%
[2]
  viability at 50 µM: 1%
  viability at 100 µM: 0%
[3]
  viability at 50 µM: 0%
  viability at 100 µM: 0%

## CCN(CC)C(=O)CCCCC(CCSCc1ccccc1)SCc1ccccc1 (stereo not shown) [L]
[1]
  viability at 50 µM: 58%
  viability at 100 µM: 32%
[2]
  viability at 50 µM: 28%
  viability at 100 µM: 14%
[3]
  viability at 50 µM: 58%
  viability at 100 µM: 18%

## CCN(CC)CCNC(=O)CCCCC(CCSCc1ccccc1)SCc1ccccc1 (stereo not shown) [M]
[1]
  viability at 50 µM: 3.1%
  viability at 100 µM: 1.9%
[2]
  viability at 50 µM: 10.8%
  viability at 100 µM: 1.4%
[3]
  viability at 50 µM: 20.5%
  viability at 100 µM: 8.5%

## O=C(CCCCC(CCSCc1ccccc1)SCc1ccccc1)NCCS(=O)(=O)O (stereo not shown) [N]
[1]
  viability at 50 µM: 104%
  viability at 100 µM: 75%
[2]
  viability at 50 µM: 126%
  viability at 100 µM: 95%
[3]
  viability at 50 µM: 119%
  viability at 100 µM: 89%
